Values of other authors in article PMC10818380, “Triphenylphosphonium Analogs of Short Peptide Related to Bactenecin 7 and Oncocin 112 as Antimicrobial Agents” (Pharmaceutics, 2024).
In brackets after ≈: the same amount, converted by molar mass.

How the values were obtained:
[1] = tested on: B. subtilis 168; parameters: method as in PMID 33922611; conditions: cited from earlier work
[2] = tested on: B. subtilis CFR; conditions: cited from earlier work

SMILES: O=C(N[C@H](CO)[C@H](O)c1ccc([N+](=O)[O-])cc1)C(Cl)Cl [Chloramphenicol]
- MIC [1]: 12 µM (≈ 3.88 µg/mL)
- MIC [2]: 90 µM (≈ 29.1 µg/mL)
